Assay results reported in ChEMBL document CHEMBL4346708, “Synthetic approaches and pharmaceutical applications of chloro-containing molecules for drug discovery: A critical review” (Eur J Med Chem, 2019).
pIC50: −log10 of the molar value. Values belong to the compound of their own block, whether it stands above or below them.

What was measured:
[1] = Inhibition of porcine pancreatic alpha-amlyase after 10 mins; parameters: species or system Sus scrofa
[2] = Antioxidant activity assessed as DPPH radical scavenging activity after 30 mins; format: functional
Erythrocyte = assay: Antiinflammatory activity in human erythrocytes assessed as inhibition of hypotonic solution-induced haemolysis after 10 mins by spectrophotometric analysis; format: functional, cell-based
Alpha glucosidase = Alpha glucosidase (Homo sapiens, UniProt O43451+P10253+P14410+Q2M2H8); assay: Inhibition of alpha-glucosidase (unknown origin) using p-nitrophenyl-a-d-glucopyranoside as substrate preincubated for 5 mins followed by substrate addition measured after 5 mins by spectrophotometric analysis; format: protein assay
[3] = target: Amyloid-beta precursor protein (Homo sapiens, UniProt P05067); assay: Inhibition of amyloid beta (1 to 42) (unknown origin) aggregation
[4] = Anti glycation activity assessed as inhibition of BSA glycation after 7 days in presence of glucose by spectrofluorimetry assay; format: functional

Chain of Amyloid-beta precursor protein (P05067 whole entry): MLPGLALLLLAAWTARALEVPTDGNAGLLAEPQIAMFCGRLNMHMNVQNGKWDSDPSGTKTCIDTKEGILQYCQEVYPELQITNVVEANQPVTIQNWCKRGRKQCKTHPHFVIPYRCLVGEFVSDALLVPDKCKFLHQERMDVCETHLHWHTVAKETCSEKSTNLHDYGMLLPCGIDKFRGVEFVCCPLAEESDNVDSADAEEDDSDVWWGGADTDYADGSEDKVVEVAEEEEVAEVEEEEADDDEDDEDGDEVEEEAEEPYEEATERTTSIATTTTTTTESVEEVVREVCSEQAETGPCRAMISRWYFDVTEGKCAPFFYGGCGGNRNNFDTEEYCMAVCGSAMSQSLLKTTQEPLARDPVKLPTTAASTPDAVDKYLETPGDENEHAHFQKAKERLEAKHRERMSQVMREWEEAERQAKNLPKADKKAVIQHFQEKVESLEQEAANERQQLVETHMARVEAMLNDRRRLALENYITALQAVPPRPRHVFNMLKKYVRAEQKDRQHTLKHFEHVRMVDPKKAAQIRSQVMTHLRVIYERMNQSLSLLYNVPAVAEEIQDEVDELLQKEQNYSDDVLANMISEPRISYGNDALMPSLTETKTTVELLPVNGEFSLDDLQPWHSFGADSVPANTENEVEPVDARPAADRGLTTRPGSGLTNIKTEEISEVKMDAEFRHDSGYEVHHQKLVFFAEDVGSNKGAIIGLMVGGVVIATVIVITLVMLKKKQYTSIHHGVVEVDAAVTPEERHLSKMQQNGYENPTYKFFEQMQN

Structure (SMILES): CCCc1nc(C(C)(C)O)c(C(=O)N/N=C/c2ccc(Cl)cc2Cl)[nH]1
pIC50 (Erythrocyte): 4.34

Structure (SMILES): O=c1c2c(F)cccc2[se]n1-c1cc(Cl)c(O)c2ncccc12
pIC50 [3]: 5.02

Structure (SMILES): Oc1ccc(-c2nc3ncc(Cl)cc3[nH]2)c(O)c1
pIC50 [4]: 3.62

Next, values leading:

pIC50 [1]: 5.68
Structure (SMILES): O=C(NNC(=S)Nc1ccccc1Cl)c1cc2cc(Cl)ccc2[nH]1

pIC50 [2]: 4.14
Structure (SMILES): Oc1ccc(O)c(-c2nc3ncc(Cl)cc3[nH]2)c1

IC50 (Alpha glucosidase): 4.7 µM
Structure (SMILES): Clc1ccc(-c2nnc(/N=C/c3ccc(Cl)cc3Cl)s2)cc1

pIC50 [1]: 5.69
Structure (SMILES): O=C(NNC(=S)Nc1ccc(F)cc1)c1cc2cc(Cl)cnc2[nH]1
